According to US9233968B1, “Kinase inhibitors” (Allergan, Inc., priority 2014, dated 2016):

Experiments:
PDGFRβ = PDGFRβ (Homo sapiens (Human), UniProt P09619); experiment: PDGFRβ Cellular Assay (FLIPR, PDGF-induced intracellular calcium in NHDF-Ad); assay type: cell-based; details: PDGF-BB stimulation 30 ng/mL, read-out: Receptor PDGFRβ IC50
Procedure: (§1) Automated FLIPR (Fluorometric Imaging Plate Reader) technology was used to screen for inhibitors of PDGF-induced increases in intracellular calcium levels in fluorescent dye loaded endothelial cells. NHDF-Ad (Normal Human Dermal Fibroblasts, Adult; Lonza) were seeded in 384-well fibronectin coated black-walled plates overnight at 37° C./5% CO2. Cells were loaded with calcium indicator Fluo-4 for 45 minutes at 37° C. Cells were washed 2 times (Elx405, Biotek Instruments) to remove extracellular dye. For screening, cells were pre-incubated with test agents for 30 minutes, at a single concentration (10 μM) or at concentrations ranging from 0.0001 to 10.0 μM followed by PDGF-BB stimulation (30 ng/mL). […] Data were generated by determining max-min fluorescence levels for unstimulated, stimulated, and drug treated samples. IC50 values for test compounds were calculated from % inhibition of PDGF-BB stimulated responses in the absence of inhibitor.

[1] = target: VEGFR2 (cytoplasmic domain KDR protein) (Homo sapiens (Human), UniProt P35968); experiment: VEGFR2 Kinase Assay (biochemical KDR kinase assay); details: 2.7 μM ATP, poly-Glu-Tyr substrate; read-out: Enzyme VEGFR2 IC50
VEGFR2 (cytoplasmic domain KDR protein), sequence (P35968 786-1356): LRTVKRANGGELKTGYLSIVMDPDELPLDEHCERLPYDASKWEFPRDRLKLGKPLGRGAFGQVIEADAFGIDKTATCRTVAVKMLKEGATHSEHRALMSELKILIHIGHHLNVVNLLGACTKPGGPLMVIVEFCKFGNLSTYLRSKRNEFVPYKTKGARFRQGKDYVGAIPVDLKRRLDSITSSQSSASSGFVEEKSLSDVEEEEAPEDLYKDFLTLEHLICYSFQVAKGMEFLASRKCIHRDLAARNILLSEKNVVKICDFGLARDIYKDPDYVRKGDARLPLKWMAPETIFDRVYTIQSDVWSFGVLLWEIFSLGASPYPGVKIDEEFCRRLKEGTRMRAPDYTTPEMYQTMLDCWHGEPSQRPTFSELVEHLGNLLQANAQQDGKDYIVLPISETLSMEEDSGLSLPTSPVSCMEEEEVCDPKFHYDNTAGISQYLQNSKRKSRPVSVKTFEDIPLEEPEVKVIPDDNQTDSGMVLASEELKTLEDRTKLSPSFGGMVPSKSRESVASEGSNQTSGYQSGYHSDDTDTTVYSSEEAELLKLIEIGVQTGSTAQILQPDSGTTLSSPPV
Procedure: Biochemical KDR kinase assays were performed in 96 well microtiter plates that were coated overnight with 75 μg/well of poly-Glu-Tyr (4:1) in 10 mM Phosphate Buffered Saline (PBS), pH 7.4. The coated plates were washed with 2 mls per well PBS+0.05% Tween-20 (PBS-T), blocked by incubation with PBS containing 1% BSA, then washed with 2 mls per well PBS-T prior to starting the reaction. Reactions were carried out in 100 μL reaction volumes containing 2.7 μM ATP in kinase buffer (50 mM Hepes buffer pH 7.4, 20 mM MgCl2, 0.1 mM MnCl2 and 0.2 mM Na3VO4). […] Reactions were initiated by the addition 20 μl per well of kinase buffer containing 200-300 ng purified cytoplasmic domain KDR protein (BPS Bioscience, San Diego, Calif.). Following a 15 minute incubation at 30° C., the reactions were washed 2 mls per well PBS-T. 100 μl of a monoclonal anti-phosphotyrosine antibody-peroxidase conjugate diluted 1:10,000 in PBS-T was added to the wells for 30 minutes. Following a 2 mls per well wash with PBS-Tween-20, 100 μl of O-Phenylenediamine Dihydrochloride in phosphate-citrate buffer, containing urea hydrogen peroxide, was added to the wells for 7-10 minutes as a colorimetric substrate for the peroxidase. The reaction was terminated by the addition of 100 μl of 2.5N H2SO4 to each well and read using a microplate ELISA reader set at 492 nm. IC50 values for compound inhibition were calculated directly from graphs of optical density (arbitrary units) versus compound concentration following subtraction of blank values.

VEGFR2 = VEGFR2 (Homo sapiens (Human), UniProt P35968); experiment: VEGFR2 Cellular Assay (FLIPR, VEGF induced intracellular calcium in HUVEC); assay type: cell-based; details: VEGF165 stimulation 10 ng/mL, read-out: Receptor VEGFR2 IC50
VEGFR2, sequence (P35968 20-1356): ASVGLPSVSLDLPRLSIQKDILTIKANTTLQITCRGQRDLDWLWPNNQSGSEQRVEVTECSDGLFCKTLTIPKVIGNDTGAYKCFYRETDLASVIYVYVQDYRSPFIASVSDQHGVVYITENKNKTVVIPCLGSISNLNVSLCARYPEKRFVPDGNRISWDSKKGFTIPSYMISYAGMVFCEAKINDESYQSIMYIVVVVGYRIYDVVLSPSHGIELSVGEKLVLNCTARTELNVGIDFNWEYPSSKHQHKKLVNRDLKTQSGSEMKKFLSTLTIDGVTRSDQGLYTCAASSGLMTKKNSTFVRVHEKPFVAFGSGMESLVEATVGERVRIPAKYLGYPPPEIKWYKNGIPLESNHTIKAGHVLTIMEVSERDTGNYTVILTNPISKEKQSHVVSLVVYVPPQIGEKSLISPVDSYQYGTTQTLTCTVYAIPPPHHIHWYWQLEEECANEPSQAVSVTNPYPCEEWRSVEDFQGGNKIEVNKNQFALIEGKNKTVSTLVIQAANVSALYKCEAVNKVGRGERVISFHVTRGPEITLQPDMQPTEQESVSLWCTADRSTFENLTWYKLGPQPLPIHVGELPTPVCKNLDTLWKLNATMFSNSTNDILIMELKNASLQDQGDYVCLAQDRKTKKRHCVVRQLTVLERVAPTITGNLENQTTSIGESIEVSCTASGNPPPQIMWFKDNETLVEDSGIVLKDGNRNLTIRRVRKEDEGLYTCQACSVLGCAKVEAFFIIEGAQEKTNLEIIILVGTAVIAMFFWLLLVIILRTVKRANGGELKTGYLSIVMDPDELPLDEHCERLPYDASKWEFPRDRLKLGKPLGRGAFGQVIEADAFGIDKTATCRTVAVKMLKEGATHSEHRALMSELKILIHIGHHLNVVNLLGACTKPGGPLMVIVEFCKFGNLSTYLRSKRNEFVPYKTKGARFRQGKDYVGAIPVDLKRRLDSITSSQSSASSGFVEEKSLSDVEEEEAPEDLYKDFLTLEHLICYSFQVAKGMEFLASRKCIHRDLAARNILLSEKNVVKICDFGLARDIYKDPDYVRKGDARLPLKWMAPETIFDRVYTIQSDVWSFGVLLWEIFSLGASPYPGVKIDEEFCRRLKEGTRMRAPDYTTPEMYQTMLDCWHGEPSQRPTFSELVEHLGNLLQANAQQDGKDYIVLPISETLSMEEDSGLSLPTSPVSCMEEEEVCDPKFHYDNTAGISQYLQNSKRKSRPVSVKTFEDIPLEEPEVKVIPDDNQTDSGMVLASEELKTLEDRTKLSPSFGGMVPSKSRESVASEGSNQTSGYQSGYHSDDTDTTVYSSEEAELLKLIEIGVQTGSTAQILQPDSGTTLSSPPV
Procedure: as §1, with “VEGFR2 Cellular Assay Automated” for “Automated”, “of VEGF induced” for “of PDGF-induced”, “cells. HUVEC (human umbilical vein endothelial cells) (Clonetics)” for “cells. NHDF-Ad (Normal Human Dermal Fibroblasts, Adult; Lonza)”, “by VEGF165” for “by PDGF-BB”, “stimulation (10” for “stimulation (30”, “of VEGF” for “of PDGF-BB”

[2] = target: PDGFRβ (cytoplasmic domain PDGFR-b protein) (Homo sapiens (Human), UniProt P09619); experiment: PDGFRβ Kinase Assay; assay type: biochemical; details: 36 μM ATP, poly-Glu-Tyr substrate; read-out: Enzyme PDGFRβ IC50
PDGFRβ (cytoplasmic domain PDGFR-b protein), sequence (P09619 554-1106): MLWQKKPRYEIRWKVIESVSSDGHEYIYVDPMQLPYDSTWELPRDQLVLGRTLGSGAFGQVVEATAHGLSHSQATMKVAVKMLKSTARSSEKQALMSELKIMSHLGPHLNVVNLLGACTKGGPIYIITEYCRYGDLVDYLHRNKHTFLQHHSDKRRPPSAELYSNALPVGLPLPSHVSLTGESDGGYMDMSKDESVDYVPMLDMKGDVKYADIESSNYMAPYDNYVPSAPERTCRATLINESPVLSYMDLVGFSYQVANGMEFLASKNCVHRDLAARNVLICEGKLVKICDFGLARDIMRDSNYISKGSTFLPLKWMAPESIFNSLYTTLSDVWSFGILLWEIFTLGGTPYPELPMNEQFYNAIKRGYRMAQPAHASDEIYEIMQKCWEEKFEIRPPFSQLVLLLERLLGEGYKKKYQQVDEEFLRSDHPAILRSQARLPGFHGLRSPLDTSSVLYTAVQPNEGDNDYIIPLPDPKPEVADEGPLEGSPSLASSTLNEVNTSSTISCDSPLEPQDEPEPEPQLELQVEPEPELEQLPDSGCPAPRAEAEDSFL
Procedure: Biochemical PDGFRβ kinase assays were performed in 96 well microtiter plates that were coated overnight with 75 μg of poly-Glu-Tyr (4:1) in 10 mM Phosphate Buffered Saline (PBS), pH 7.4. The coated plates were washed with 2 mls per well PBS+0.05% Tween-20 (PBS-T), blocked by incubation with PBS containing 1% BSA, then washed with 2 mls per well PBS-T prior to starting the reaction. […] Reactions were initiated by the addition 20 μl per well of kinase buffer containing 200-300 ng purified cytoplasmic domain PDGFR-b protein (Millipore). Following a 60 minute incubation at 30° C., the reactions were washed 2 mls per well PBS-T. 100 μl of a monoclonal anti-phosphotyrosine antibody-peroxidase conjugate diluted 1:10,000 in PBS-T was added to the wells for 30 minutes. Following a 2 mls per well wash with PBS-Tween-20, 100 μl of O-Phenylenediamine Dihydrochloride in phosphate-citrate buffer, containing urea hydrogen peroxide, was added to the wells for 7-10 minutes as a colorimetric substrate for the peroxidase. […] IC50 values for compound inhibition were calculated directly from graphs of optical density (arbitrary units) versus compound concentration following subtraction of blank values.

PDGFRβ, sequence (P09619 33-1106): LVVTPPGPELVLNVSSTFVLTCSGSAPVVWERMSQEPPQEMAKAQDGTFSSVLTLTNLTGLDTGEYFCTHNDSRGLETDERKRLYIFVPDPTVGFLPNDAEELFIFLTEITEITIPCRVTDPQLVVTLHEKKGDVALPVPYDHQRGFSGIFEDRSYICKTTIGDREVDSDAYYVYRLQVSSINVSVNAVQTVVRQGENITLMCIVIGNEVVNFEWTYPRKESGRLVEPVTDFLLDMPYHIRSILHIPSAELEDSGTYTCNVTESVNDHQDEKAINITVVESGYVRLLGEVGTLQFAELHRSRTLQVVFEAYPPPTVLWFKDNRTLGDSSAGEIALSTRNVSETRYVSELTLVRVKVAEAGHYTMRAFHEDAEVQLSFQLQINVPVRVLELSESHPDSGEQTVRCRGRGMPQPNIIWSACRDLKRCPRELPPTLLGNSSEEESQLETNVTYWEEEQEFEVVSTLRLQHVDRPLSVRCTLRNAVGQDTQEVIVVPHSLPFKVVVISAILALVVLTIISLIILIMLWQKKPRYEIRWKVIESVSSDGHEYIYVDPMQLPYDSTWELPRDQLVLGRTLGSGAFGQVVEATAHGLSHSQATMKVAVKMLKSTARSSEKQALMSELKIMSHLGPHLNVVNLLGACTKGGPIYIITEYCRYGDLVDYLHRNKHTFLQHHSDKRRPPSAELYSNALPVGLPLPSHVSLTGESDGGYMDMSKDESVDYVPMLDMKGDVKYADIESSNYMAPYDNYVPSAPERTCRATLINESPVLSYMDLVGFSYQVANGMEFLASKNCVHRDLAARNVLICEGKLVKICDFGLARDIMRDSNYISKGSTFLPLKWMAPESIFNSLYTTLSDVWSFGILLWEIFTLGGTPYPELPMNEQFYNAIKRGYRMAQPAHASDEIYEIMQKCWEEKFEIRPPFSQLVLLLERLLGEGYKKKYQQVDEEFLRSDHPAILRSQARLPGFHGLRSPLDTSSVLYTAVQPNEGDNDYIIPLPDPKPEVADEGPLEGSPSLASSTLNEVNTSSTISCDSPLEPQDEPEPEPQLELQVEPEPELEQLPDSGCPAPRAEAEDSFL

Compound	IC50 (PDGFRβ) [nM]	IC50 [1] [nM]	IC50 (VEGFR2) [nM]	IC50 [2] [nM]
Cc1ccc(F)c(C(=O)Nc2cccc(C#Cc3ccc4nc(N)cn4n3)c2)c1 [Example 21, N-{3-[(2-aminoimidazo[1,2-b]pyridazin-6-yl)ethynyl]phenyl}-2-fluoro-5-methylbenzamide]	371	88	1120	767
Cc1cccc(NC(=O)Nc2ccc(C#Cc3ccc4nccn4n3)cc2)c1 [Example 3, 1-[4-(imidazo[1,2-b]pyridazin-6-ylethynyl)phenyl]-3-(3-methylphenyl)urea]	70	23	132	80
O=C(Nc1cccc(C#Cc2ccc3nccn3n2)c1)c1ccc(F)c(Cl)c1 [Example 24, 3-chloro-4-fluoro-N-[3-(imidazo[1,2-b]pyridazin-6-ylethynyl)phenyl]benzamide]	2680	464	1460	938
Nc1cn2nc(C#Cc3ccc(NC(=O)c4ccccc4)cc3)ccc2n1 [Example 19, N-{4-[(2-aminoimidazo[1,2-b]pyridazin-6-yl)ethynyl]phenyl}benzamide]	> 10000	1250	> 10000	> 10000
O=C(Nc1cccc(C#Cc2ccc3nccn3n2)c1)c1ccccc1 [Example 27, N-[3-(imidazo[1,2-b]pyridazin-6-ylethynyl)phenyl]benzamide]	17800	2360	> 10000	27
Cc1ccc(F)c(C(=O)Nc2ccc(C#Cc3ccc4nc(N)cn4n3)cc2)c1 [Example 20, N-{4-[(2-aminoimidazo[1,2-b]pyridazin-6-yl)ethynyl]phenyl}-2-fluoro-5-methylbenzamide]	> 10000	> 10000	4400	> 10000
O=C(Nc1cccc(C#Cc2ccc3nccn3n2)c1)c1cc2ccccc2o1 [Example 25, N-[3-(imidazo[1,2-b]pyridazin-6-ylethynyl)phenyl]-1-benzofuran-2-carboxamide]	> 10000	1610	> 10000	2720
